Source: patent US4689333A, “2-(2-pyridylmethylthio (sulfinyl)) benzimidazoles” (Takeda Chemical Industries, Ltd., priority 1984, dated 1987)

experiment: Toxicity, oral administration to mice; format: in vivo; settings: even in a dose of 2000 mg/kg

SMILES	fatal effect on oral administration
Cc1c(OCC(F)(F)C(F)(F)F)ccnc1C[S+]([O-])c1nc2ccccc2[nH]1 (centres unmarked) [2-[3-methyl-4-(2,2,3,3,3-pentafluoropropoxy)pyrid-2-yl]methylsulfinylbenzimidazole]	no fatal effect

experiment: Anti-ulcer action: indomethacin-induced gastric antral ulcer in rats; format: in vivo, Male Sprague-Dawley rats; settings: Rattus norvegicus, po, 5 h, p.o., 30 min before indomethacin 30 mg/kg s.c., 6 rats per group, doses 1, 3, 10 and 30 mg/kg, read-out: Anti-ulcer action ID50
Excerpt: As the models of gastrointestinal ulcers, restraint and water-immersion stress-induced ulcer, indomethacin-induced ulcer and ethanol-induced gastric mucosal lesions have been used. However, as a model mimicking human gastric ulcer, indomethacin-induced gastric antral ulcer was reported in "Gastroenterology" (Satoh et al. 81, p. 719, 1981), which is considered to be of value as an experimental model. Therefore, the following are data of anti-ulcer actions of the object compounds (I) and of some representable known compounds, on the ulcer model in the above-mentioned literature reference.
Male Sprague-Dawley rats of 7-weeks old were fasted for 24 hours. These animals were administered test compounds into stomach by using a gastric tube. After 30 minutes, indomethacin, 30 mg/kg subcutaneously, was administered. During 30-90 minutes after the administration of indomethacin, these animals had free access to chow pellets (Japan Clea, CE-2). At 5 hours after the administration of indomethacin, 1 ml of 1% Evans blue was injected to the animals via the tail vein, followed by sacrificing these animals with carbon dioxide gas. The stomach was removed together with the lower part of esophagus and the duodenum. The esophagus was clipped, 10 ml of 1% formalin solution was instilled into the stomach from the duodenum, and then the duodenum was clipped. The whole stomach was immersed in 1% formalin solution. About 15 minutes later, the stomachs were opened along the greater curvature. The area of the lesions which occurred in the gastric antral mucosa was measured under a dissecting microscope with a square-grid eye piece (x10). The sum total of the individual lesions in each animal was measured, and the average value per group was calculated. Based on the difference between the average value of each group and that of the control group, the inhibition rate was determined. The test compound and indomethahacin were suspended in a 5% gum arabic solution, respectively and administered in a volume of 2 ml/kg.
^(a) Using 6 rats per group, each of the test compounds was
administered in a dose of 1, 3, 10 and 30 mg/kg to determine ID50.

SMILES	ED50 [mg/kg]
[O-][S+](Cc1cc(OCC(F)(F)F)ccn1)c1nc2ccccc2[nH]1 (centres unmarked) [R^1=H, R^2=H, R^3=H, R^4=CH2 CF3, n=1]	2.4
Cc1c(OCC(F)(F)F)ccnc1C[S+]([O-])c1nc2ccccc2[nH]1 (centres unmarked) [R^1=H, R^2=CH3, R^3=H, R^4=CH2 CF3, n=1, 2-[3methyl-4-(2,2,2-trifluoroethoxy)-pyrid-2-yl]methylsulfinylbenzimidazo]	< 1
[O-][S+](Cc1cc(OCC(F)(F)C(F)(F)F)ccn1)c1nc2ccccc2[nH]1 (centres unmarked)	1.3
Cc1c(OCC(F)(F)C(F)F)ccnc1C[S+]([O-])c1nc2ccccc2[nH]1 (centres unmarked)	< 1
Cc1c(OCC(F)(F)C(F)(F)F)ccnc1CSc1nc2ccccc2[nH]1 [2-[3-methyl-4-(2,2,3,3,3-pentafluoropropoxy)-pyrid-2-yl]methylthiobenzimidazole]	3.7
Cc1c(OCC(F)(F)C(F)(F)F)ccnc1C[S+]([O-])c1nc2ccccc2[nH]1 (centres unmarked) [2-[3-methyl-4-(2,2,3,3,3-pentafluoropropoxy)pyrid-2-yl]methylsulfinylbenzimidazole]	< 1
[O-][S+](Cc1cc(OCC(F)(F)C(F)F)ccn1)c1nc2ccccc2[nH]1 (centres unmarked)	1.3
